Test results taken from US20080249176A1, “Methods and Compositions for the Treatment of Myocardial Conditions” (priority 2004, published 2008).

Key:
Na^+—K^+ pump = test: Whole-cell patch clamp measurement of Na+-K+ pump current (Ip) in isolated cardiac myocytes; type: cell-based, rabbit
From the text: The whole-cell patch clamp technique (Hamill et al, 1981; Buhagier et al, 2004; Hansen et al, 2002) was used to examine the effect of β3 adrenoceptor stimulation on the Na^+—K^+ pump in isolated cardiac myocytes.
With the whole-cell patch clamp technique myocytes are suspended in a tissue bath mounted on the stage of an inverted microscope. A fine glass pipette is attached to the cell membrane and gentle suction applied to rupture the membrane patch directly under the tip of the glass pipette. This allows the intracellular compartment of the myocyte to be perfused with solution contained in the patch pipette. It also allows access of drugs and compounds to the intracellular compartment. Control of the composition of the extracellular solution in the tissue bath is achievable. The technique also allows control of membrane voltage and measurement of total membrane current.
The Na^+—K^+ pump's 3Na^+:2K^+ exchange ratio generates a current (Ip) that can be measured as the shift in holding current of the patch-clamped myocyte that is induced by pump blockade with 100 μM ouabain.
In the whole-cell configuration the bath was perfused with modified Tyrode's solution which contained (in mmol/L) NaCl 140; KCl 5.6; CaCl2 2.16; MgCl2 1; NaH2PO4 0.44; glucose 10 and Na-glutamate 9; N-2-hydroxyethyl piperazine-N′-2-[…] (HEPES) 10. The solution was titrated to a pH of 7.40±0.01 at 35° C. with NaOH.
For measurement of Ip the system was switched to a superfusate that usually was identical to the modified Tyrode's solution except that it was nominally Ca^2+-free and contained 0.2 mmol/L CdCl2 and 2 mmol/L BaCl2.
Wide-tipped patch pipettes (4-5 μm) were filled with solutions containing (in mmol/L) HEPES 5; MgATP 2; ethylene glycol-bis(β-aminoethyl ether)-N,N,N′,N′-tetraacetic acid (EGTA) 5; KCl 70 mmol/L. Osmotic balance was maintained with 80 mmol/L tetramethylammonium chloride (TMA-Cl). The solutions were titrated to a pH of 7.05±0.01 at 35° C. with 1 mmol/L TMA-OH. Ip was identified at a holding potential of −40 mV as the shift in holding current induced by Na^+—K^+ pump blockade with 100 μmol/L ouabain 10-15 minutes after the whole-cell configuration had been established. […] Details of patch pipette characteristics and equipment and criteria for defining Ip have been reported previously (Buhagiar et al, 1999).
The whole-cell patch clamp technique was similar to that described above except that extracellular Na^+ was eliminated (NaCl was replaced with N-methyl-D-glucamine (NMG.Cl)) to rule out any possible influx of Na^+ across the cell membrane.

PKA = conditions: H-89 0.5 μM; cited from earlier work
[1] = test system: model of ischaemic cardiomyopathy with severe heart failure induced by repeated coronary microembolisation in sheep; test: Sheep heart failure model, left ventricular end systolic pressure-volume relationship (ESPVR); type: in vivo; conditions: intravenous infusion, increasing doses, mean of 3 sheep, FIG. 6
Procedure: To examine the effect of acute activation of the β3-receptor we used a model of ischaemic cardiomyopathy with severe heart failure induced by repeated coronary microembolisation in sheep (Huang, Y et al., Am J Physiol 286: H2141-50, 2004). The model is stable and reflects the human condition well (Huang et al, 2004).
BRL 37344 was administered by intravenous infusion over a period of 8 min, starting with the lowest dose of the protocol. After an additional 5 min pressure-volume relationships were determined as described (Huang et al., 2004). The procedure was then repeated in an identical fashion using a larger dose of BRL 37344. The left ventricular end systolic pressure-volume relationship (ESPVR) was used as an index of cardiac performance. ESPVR is relatively independent of confounding factors such as pre- and after-load and heart rate, and is widely accepted as a good index of left ventricular function.
Results are shown in FIG. 6, both before and after induction of heart failure. The independent variable on the abscissa indicates the dose in microgram BRL 37344 per kg weight of the sheep. Note the logarithmic increment in dose. The mean of ESPVR measured in 3 different sheep before and after induction of severe heart failure is shown on the ordinate. […]

In the case of `Cl.Cl.O=S(=O)(NCCNCC=Cc1ccc(Br)cc1)c1cccc2cnccc12` [H-89, N-[2-(p-Bromocinnamylamino)ethyl]-5-isoquinolinesulfonamide dihydrochloride], the “Effect on 6-Bnz-cAMP-induced decrease in Ip” value (Na^+—K^+ pump; H-89 0.5 μM + 6-Bnz-cAMP 100 μM in pipette solution, FIG. 5) is given as “reversed the 6-Bnz-cAMP-induced decrease in Ip” and the “Effect on PKA-mediated Na^+—K^+ pump inhibition” value (PKA) is given as “abolishes PKA-mediated Na^+—K^+ pump inhibition”.

With `C[C@H](Cc1ccc(OCC(=O)O)cc1)NC[C@H](O)c1cccc(Cl)c1` [BRL 37344] the “BRL 37344-induced stimulation of the Na,K-pump in the absence of extracellular Na^+” value (Na^+—K^+ pump; 10 nM BRL 37344, NaCl replaced by NMG.Cl, FIG. 3) was “persisted in the absence of extracellular Na^+”, the “Na,K-pump activity at 100 nM in comparison with activity observed with 10 nM” value (Na^+—K^+ pump; 100 nM vs 10 nM BRL 37344, pipette Na 10 mM, FIG. 1) was “apparent lower activity” and the “Na^+—K^+ pump current (Ip) in comparison with normal controls” value (Na^+—K^+ pump; BRL 37344 1 nM, 10 nM and 100 nM, pipette Na 10 mM, FIG. 1) was “significantly stimulates”. For the same compound, the “Slope of linear regression of log dose vs. ESPVR” value ([1]; normal sheep (before induction of heart failure)) was “trend towards a negative slope” and the “Slope of linear regression of log dose vs. ESPVR” value ([1]; sheep after induction of severe heart failure) was “significantly positive”.

In the case of `CC(C)(C)NCC(O)COc1cccc2c1CC(O)C(O)C2` (stereo not drawn) [nadolol], the “Na,K-pump activity with nadolol in the presence of 100 nM BRL 37344 compared to 100 nM BRL 37344 alone” value (Na^+—K^+ pump; nadolol 1 μM + 100 nM BRL 37344 in superfusate, FIG. 2) is reported as “increased, although not quite significantly”.

With `O=C(Nc1ncnc2c1ncn2[C@@H]1O[C@@H]2COP(=O)(O)OC2C1O)c1ccccc1` (stereo in doubt) [6-Bnz-cAMP] the “Effect on Ip” value (Na^+—K^+ pump; 100 μM 6-Bnz-cAMP in patch pipette solution, NA-free control superfusate, FIG. 5) was “significant decrease in Ip”.

For `NC[C@H](O)c1ccc(O)c(O)c1` [NA, noradrenaline], the “NA-induced increase in Ip with β1/β2 blockade” value (Na^+—K^+ pump; 10 nM NA + 1 μM nadolol, FIG. 4) was “persisted in the presence of nadolol”, the “NA-induced increase in Ip with PKA blockade” value (Na^+—K^+ pump; 10 nM NA, 0.5 μM H-89 in patch pipette solution, FIG. 4) was “persisted with PKA blockade” and the “Effect on Ip” value (Na^+—K^+ pump; 10 nM NA, FIG. 4) was “induced an increase in Ip”.
